Patent US20070117770A1, “Human ribosomal DNA (rDNA) and ribosomal RNA (rRNA) nucleic acids and uses thereof” (Cylene Pharmaceuticals, Inc., priority 2005, published 2007)

What was measured:
Pim-1(h) = Pim-1(h) (Homo sapiens, UniProt P11309); test: Protein kinase inhibition assay; type: biochemical; settings: read-out: percent residual activity of Pim-1(h)
Description: (§1) Certain compounds were tested for activity in protein kinase inhibition assays. All substrates were dissolved and diluted to working stocks in de-ionized water, apart from histone H1 (10× working stock in 20 mM MOPS pH 7.0), PDKtide (10× working stock in 50 mM Tris pH 7.0) ATF2 (which is typically stored at a 20× working stock in 50 mM Tris pH 7.5, 150 mM NaCl, 0.1 mM EGTA, 0.03% Brij-35, 50% glycerol, 1 mM benzamidine, 0.2 mM PMSF and 0.1% R-mercaptoethanol), KKLNRTLSFAEPG (SEQ ID NO:203) and RRRLSFAEPG (SEQ ID NO:204) (50 mM HEPES pH 7.4) and GGEEEEYFELVKKKK (SEQ ID NO:205) (20 mM MOPS pH 7.0). All kinases were pre-diluted to a 10× working concentration prior to addition into the assay. The composition of the dilution buffer for each kinase is detailed below.
(§2) In a final reaction volume of 25 μl, Pim-1 (h) (5-10 mU) is incubated with 8 mM MOPS pH 7.0, 0.2 mM EDTA, 100 μM KKRNRTLTV (SEQ ID NO:219), 10 mM MgAcetate and [gamma-33P-ATP] (specific activity approx. 500 cpm/pmol, concentration as required). The reaction is initiated by the addition of the MgATP mix. After incubation for 40 minutes at room temperature, the reaction is stopped by the addition of 5 μl of a 3% phosphoric acid solution. 10 μl of the reaction is then spotted onto a P30 filtermat and washed three times for 5 minutes in 75 mM phosphoric acid and once in methanol prior to drying and scintillation counting.

HCT116 cells = test: DNA synthesis (BrdU-ELISA); type: cell-based; settings: for A-1 a concentration at which many of the cells were dead
Description: Effects of compound A-1 and compound B-1 on DNA synthesis, RNA synthesis and protein synthesis were determined in HCT116 cells. HCT116 cells were plated overnight at 100,000 cells per mL. Next day cells were treated with increasing amounts of either compound A-1 or compound B-1 followed by one hour incubation with BrdU label (from a BrdU Cell proliferation Assay Kit, Calbiochem) to monitor DNA synthesis; […] of ^3H-uridine to monitor total RNA synthesis; […] of ^3H-methionine to monitor protein synthesis or plain media to monitor RNA Polymerase II-dependent RNA synthesis. DNA synthesis was assessed using a BrdU-ELISA (BrdU Cell proliferation Assay Kit, Calbiochem). To measure total RNA synthesis, total RNA from treated cells was isolated with a RNease kit (QIAGEN), levels of total RNA were assessed with Ribogreen reagent (Invitrogen) and the newly synthesized tritiated RNA was measured in a scintillation Counter (Perkin Elmer). To measure effects on protein synthesis, cells were lysed in a RIPA buffer, and total protein was precipitated with 10% TCA on a glass-filters. Newly synthesized tritiated protein was measured in a scintillation Counter (Perkin Elmer). Effects of drugs on […] RNA synthesis were assessed by monitoring levels of a c-myc mRNA, which has a relatively short half-life of approximately 30 minutes, by Taqman qRT-PCR (ABI).

CDK2/cyclinA(h) = CDK2/cyclinA(h) (Homo sapiens, UniProt P24941); test: Protein kinase inhibition assay; type: biochemical; settings: read-out: percent residual activity of CDK2/cyclinA(h)
Description: as §1
as §2, with “CDK2/cyclinA” for “Pim-1”, “0.1 mg/ml histone H1,” for “100 μM KKRNRTLTV (SEQ ID NO:219),”

Arg(m) = Arg(m) (Mus musculus, UniProt Q4JIM5); test: Protein kinase inhibition assay; type: biochemical; settings: read-out: percent residual activity of Arg(m)
Description: as §1
as §2, with “Arg (m)” for “Pim-1 (h)”, “50” for “100”, “EAIYAAPFAKKK” for “KKRNRTLTV”, “NO:206),” for “NO:219),”

PKBβ(h) = PKBβ(h) (Homo sapiens, UniProt P31751); test: Protein kinase inhibition assay; type: biochemical; settings: read-out: percent residual activity of PKBβ(h)
Description: as §1
as §2, with “PKBβ” for “Pim-1”, “30” for “100”, “GRPRTSSFAEGKK” for “KKRNRTLTV”, “NO:232),” for “NO:219),”

PDK1(h) = PDK1(h) (Homo sapiens, UniProt O15530); test: Protein kinase inhibition assay; type: biochemical; settings: read-out: percent residual activity of PDK1(h)
Description: as §1
In a final reaction volume of 25 μl, PDK1 (h) (5-10 mU) is incubated with 50 mM Tris pH 7.5, 100 μM […] (SEQ ID NO:217) (PDKtide), 0.1% R-mercaptoethanol, 10 mM MgAcetate and [gamma-33P-ATP] (specific activity approx. 500 cpm/pmol, concentration as required). The reaction is initiated by the addition of the MgATP mix. After incubation for 40 minutes at room temperature, the reaction is stopped by the addition of 5 μl of a 3% phosphoric acid solution. […]

Sequence of Pim-1(h) (P11309 whole entry): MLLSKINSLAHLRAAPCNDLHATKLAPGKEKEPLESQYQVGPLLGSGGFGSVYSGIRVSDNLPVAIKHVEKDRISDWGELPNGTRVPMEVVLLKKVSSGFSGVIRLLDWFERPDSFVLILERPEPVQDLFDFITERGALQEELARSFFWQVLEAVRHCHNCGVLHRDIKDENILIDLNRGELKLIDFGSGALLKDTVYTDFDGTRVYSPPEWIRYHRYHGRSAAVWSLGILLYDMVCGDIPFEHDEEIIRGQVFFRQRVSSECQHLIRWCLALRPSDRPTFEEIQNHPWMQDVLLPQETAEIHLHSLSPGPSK
Sequence of Arg(m) (Q4JIM5 whole entry): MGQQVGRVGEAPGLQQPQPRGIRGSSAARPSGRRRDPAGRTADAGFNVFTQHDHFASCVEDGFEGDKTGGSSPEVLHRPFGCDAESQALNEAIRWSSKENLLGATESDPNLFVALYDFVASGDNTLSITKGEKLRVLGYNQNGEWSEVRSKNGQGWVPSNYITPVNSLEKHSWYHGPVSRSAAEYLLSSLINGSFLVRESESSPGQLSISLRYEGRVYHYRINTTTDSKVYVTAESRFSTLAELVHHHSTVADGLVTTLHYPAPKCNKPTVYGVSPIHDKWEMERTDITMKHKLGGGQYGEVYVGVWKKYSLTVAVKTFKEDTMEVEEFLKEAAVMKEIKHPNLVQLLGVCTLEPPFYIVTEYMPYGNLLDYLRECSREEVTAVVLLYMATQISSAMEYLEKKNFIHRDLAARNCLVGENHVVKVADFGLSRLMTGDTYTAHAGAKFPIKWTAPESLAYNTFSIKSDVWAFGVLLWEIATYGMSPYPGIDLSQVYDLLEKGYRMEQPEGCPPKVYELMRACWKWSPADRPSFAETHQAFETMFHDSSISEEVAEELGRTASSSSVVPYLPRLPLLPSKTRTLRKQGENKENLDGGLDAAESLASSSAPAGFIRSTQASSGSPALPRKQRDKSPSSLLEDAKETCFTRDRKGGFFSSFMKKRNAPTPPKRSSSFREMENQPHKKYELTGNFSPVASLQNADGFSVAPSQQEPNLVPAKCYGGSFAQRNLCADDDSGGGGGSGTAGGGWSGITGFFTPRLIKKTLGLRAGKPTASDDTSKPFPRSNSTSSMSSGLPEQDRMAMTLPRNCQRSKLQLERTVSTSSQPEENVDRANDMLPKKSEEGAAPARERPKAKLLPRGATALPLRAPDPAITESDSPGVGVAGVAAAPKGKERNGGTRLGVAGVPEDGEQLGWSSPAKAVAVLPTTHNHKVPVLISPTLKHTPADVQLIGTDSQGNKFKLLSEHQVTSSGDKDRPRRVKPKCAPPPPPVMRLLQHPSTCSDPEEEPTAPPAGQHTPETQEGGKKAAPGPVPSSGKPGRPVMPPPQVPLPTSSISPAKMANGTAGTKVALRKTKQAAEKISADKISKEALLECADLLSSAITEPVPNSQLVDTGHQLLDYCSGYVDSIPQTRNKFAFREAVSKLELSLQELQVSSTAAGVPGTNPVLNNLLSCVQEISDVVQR
Sequence of PDK1(h) (O15530 whole entry): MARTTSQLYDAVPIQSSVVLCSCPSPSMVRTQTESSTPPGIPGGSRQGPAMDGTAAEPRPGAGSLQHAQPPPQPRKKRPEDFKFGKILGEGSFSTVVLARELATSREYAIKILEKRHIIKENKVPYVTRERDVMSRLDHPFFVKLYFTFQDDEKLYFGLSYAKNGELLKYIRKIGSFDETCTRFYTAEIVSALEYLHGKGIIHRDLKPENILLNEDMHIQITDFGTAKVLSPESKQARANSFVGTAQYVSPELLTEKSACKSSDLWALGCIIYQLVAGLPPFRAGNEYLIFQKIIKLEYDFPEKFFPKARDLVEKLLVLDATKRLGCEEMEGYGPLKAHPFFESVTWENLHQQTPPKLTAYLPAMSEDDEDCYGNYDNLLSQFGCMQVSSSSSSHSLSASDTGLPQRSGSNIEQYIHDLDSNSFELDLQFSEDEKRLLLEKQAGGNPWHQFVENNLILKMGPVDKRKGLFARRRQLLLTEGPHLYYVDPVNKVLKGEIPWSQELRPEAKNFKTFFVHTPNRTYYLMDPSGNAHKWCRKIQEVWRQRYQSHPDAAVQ
Sequence of PKBβ(h) (P31751 whole entry): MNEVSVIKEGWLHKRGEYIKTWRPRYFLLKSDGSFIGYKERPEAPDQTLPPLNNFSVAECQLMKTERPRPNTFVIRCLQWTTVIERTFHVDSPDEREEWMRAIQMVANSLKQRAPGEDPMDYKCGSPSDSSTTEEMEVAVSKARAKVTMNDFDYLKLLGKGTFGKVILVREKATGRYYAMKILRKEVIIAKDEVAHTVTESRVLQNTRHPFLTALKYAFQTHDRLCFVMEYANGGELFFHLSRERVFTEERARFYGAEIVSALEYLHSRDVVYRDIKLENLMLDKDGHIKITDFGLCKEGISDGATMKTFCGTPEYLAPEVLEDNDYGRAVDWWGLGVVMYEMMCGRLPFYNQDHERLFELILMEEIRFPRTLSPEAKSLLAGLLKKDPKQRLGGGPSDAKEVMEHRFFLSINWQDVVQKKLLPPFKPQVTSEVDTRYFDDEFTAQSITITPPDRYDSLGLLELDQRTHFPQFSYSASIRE

remaining activity at 2.5 µM (Pim-1(h)) [%]	remaining activity at 2.5 µM (CDK2/cyclinA(h)) [%]	remaining activity at 2.5 µM (Arg(m)) [%]	remaining activity at 2.5 µM (PKBβ(h)) [%]	remaining activity at 2.5 µM (PDK1(h)) [%]	SMILES	concentration that significantly reduced DNA synthesis (HCT116 cells) [µM]
30	86	43	48	121	CN1CCCC1CCNC(=O)c1cn2c3c(c(N4CCC(c5cnccn5)C4)c(F)cc3c1=O)Oc1cc3ccccc3cc1-2 (stereo not drawn) [Compound A-1]	10
104	94	102	106	109	CC(=O)N1CCN(c2ccc3c(=O)c(C(=O)NCCN4CCCC4)c4n(C)c5ccccc5n4c3n2)CC1 [Compound B-1]	30
